These results are taken from PubChem BioAssay (NCI).

Among the test systems are CAKI-1 renal; COLO 205 colon; EKVX NSCLC; HS 578T breast; LOX IMVI melanoma; MCF7 breast; NCI-H23 lung; NCI-H522 lung; OVCAR-8 ovarian; UO-31 renal.
What all share (assay): growth of human tumour cells (NCI), 48 h

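How tested: cells in 96-well plates exposed to compound for 48 hours at five concentrations. At the GI50, growth is halved. TGI: total growth inhibition.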

As to `Cc1cccc(C)c1NC(=O)Nc1ccc(S(N)(=O)=O)cc1`, the TGI with CAKI-1 renal, with COLO 205 colon, in the assay with EKVX NSCLC, in the assay with HS 578T breast, with LOX IMVI melanoma and with MCF7 breast was more than 100 µM in each case. In addition, the TGI in the assay on NCI-H23 lung, in the assay on NCI-H522 lung, in the assay on OVCAR-8 ovarian and in the assay with UO-31 renal was more than 100 µM in each case.
On to `CN/N=C(\C)C(CN(C)C)C(c1ccccc1)c1c(O)c2ccccc2oc1=O` (stereo not given), for which the TGI in the assay with CAKI-1 renal, in the assay on COLO 205 colon, with EKVX NSCLC, with HS 578T breast, in the assay on LOX IMVI melanoma and in the assay with MCF7 breast was more than 100 µM each time. Besides, the TGI with NCI-H23 lung, in the assay with NCI-H522 lung, in the assay with OVCAR-8 ovarian and in the assay on UO-31 renal was more than 100 µM in each case.
For `CCCC(CCC)C(=O)OCC1(CO)C/C(=C\c2ccc(F)cc2)C(=O)O1` (stereo not given), the GI50 in the assay on CAKI-1 renal is 7.28 µM; with COLO 205 colon, 0.545 µM; with EKVX NSCLC, 7.67 µM; in the assay with HS 578T breast, 14.3 µM; with LOX IMVI melanoma, 11.2 µM; in the assay with MCF7 breast, 15.5 µM. Moreover, the GI50 with NCI-H23 lung is 12.4 µM; in the assay with NCI-H522 lung it was 14.5 µM; in the assay on OVCAR-8 ovarian, 17.9 µM; in the assay on UO-31 renal, 8.35 µM. For the same molecule, the TGI with CAKI-1 renal worked out at 27.4 µM; in the assay with COLO 205 colon, 8.74 µM; in the assay on EKVX NSCLC, 34.3 µM; in the assay with HS 578T breast, 43.5 µM; in the assay with LOX IMVI melanoma, 24.5 µM; with MCF7 breast it was 31.4 µM. Further, the TGI was determined as 26.7 µM with NCI-H23 lung, 30.4 µM in the assay on NCI-H522 lung, 37 µM with OVCAR-8 ovarian and 24.4 µM in the assay with UO-31 renal.
`COc1cccc(/C=C/C(=O)c2ccc(Cl)cc2Cl)c1`: the GI50 with CAKI-1 renal is 13.1 µM; with COLO 205 colon, 8.85 µM; in the assay with EKVX NSCLC, 13.5 µM; in the assay on HS 578T breast it was 22.3 µM; in the assay with LOX IMVI melanoma it was 15.3 µM; in the assay with MCF7 breast, 7.84 µM. Further, the GI50 in the assay with NCI-H23 lung is 9.72 µM; in the assay on NCI-H522 lung, 18 µM; in the assay on OVCAR-8 ovarian, 9.46 µM; in the assay on UO-31 renal it was 17.4 µM. Further, the TGI with CAKI-1 renal was 29.6 µM; with COLO 205 colon, 18.4 µM; in the assay with EKVX NSCLC it was 25.8 µM; in the assay on HS 578T breast, more than 50 µM; in the assay with LOX IMVI melanoma, more than 50 µM; with MCF7 breast, 47.1 µM. The TGI in the assay with NCI-H23 lung was 28.7 µM; in the assay on NCI-H522 lung it was more than 50 µM; in the assay with OVCAR-8 ovarian, 22.7 µM; with UO-31 renal, more than 50 µM.
Turning to `Cc1cc(CC(C)CC(C)(C)C)n(O)c(=O)c1` (stereo not given) (tested in a mixture with another compound), the GI50 was 1.76 µM with CAKI-1 renal; 13.4 µM in the assay with COLO 205 colon; 0.889 µM in the assay with EKVX NSCLC; 8.07 µM in the assay on HS 578T breast; 0.312 µM in the assay with LOX IMVI melanoma; 0.401 µM in the assay on MCF7 breast. For the same molecule, the GI50 with NCI-H23 lung was 0.559 µM; in the assay with NCI-H522 lung, 0.475 µM; with OVCAR-8 ovarian, 0.41 µM; in the assay on UO-31 renal, 0.379 µM. The TGI is 9.82 µM in the assay on CAKI-1 renal; 59.6 µM in the assay with COLO 205 colon; 25.4 µM in the assay with EKVX NSCLC; more than 62.1 µM in the assay on HS 578T breast; 10.9 µM in the assay with LOX IMVI melanoma; more than 43 µM with MCF7 breast. Further, the TGI in the assay on NCI-H23 lung was 22 µM; in the assay on NCI-H522 lung, 4.23 µM; with OVCAR-8 ovarian it was more than 100 µM; in the assay with UO-31 renal, 7.01 µM.
`CCOC(=O)CC1C(COC(=O)NC)OC(n2cnc3c(NC(=O)Nc4ccccc4)ncnc32)C1O[Si](C)(C)C(C)(C)C` (stereo not given): the GI50 with CAKI-1 renal was 3.72 µM; with COLO 205 colon, 7.7 µM; with EKVX NSCLC, 3.39 µM; with HS 578T breast it was 3.39 µM; in the assay on LOX IMVI melanoma, 7.78 µM; with MCF7 breast it was 3.37 µM. In addition, the GI50 was 12.9 µM in the assay with NCI-H23 lung, 9.58 µM in the assay on NCI-H522 lung, 10.3 µM in the assay on OVCAR-8 ovarian and 5.7 µM in the assay with UO-31 renal. For the same molecule, the TGI is 38.8 µM in the assay with CAKI-1 renal; 20.2 µM in the assay on COLO 205 colon; more than 100 µM in the assay with EKVX NSCLC; 14.7 µM with HS 578T breast; 23 µM in the assay with LOX IMVI melanoma; 17.1 µM in the assay on MCF7 breast. Also, the TGI was 53 µM in the assay with NCI-H23 lung, more than 100 µM in the assay on NCI-H522 lung, more than 100 µM with OVCAR-8 ovarian and 55.4 µM in the assay on UO-31 renal.
`OCC(O)c1nc2ccc3[nH]ncc3c2c2c1CCCC2` (stereo not given): the GI50 in the assay on CAKI-1 renal was 0.971 µM; with COLO 205 colon, 1.23 µM; in the assay with EKVX NSCLC, 1.3 µM; with HS 578T breast it was 1.4 µM; in the assay with LOX IMVI melanoma it was 1.1 µM; with MCF7 breast, 0.931 µM. Besides, the GI50 in the assay with NCI-H23 lung was 1.07 µM; in the assay on NCI-H522 lung it was 1.5 µM; in the assay with OVCAR-8 ovarian, 1.45 µM; in the assay with UO-31 renal, 1.55 µM. The TGI is more than 50 µM in the assay with CAKI-1 renal; 3.43 µM with COLO 205 colon; 4.67 µM in the assay with EKVX NSCLC; 4.26 µM in the assay with HS 578T breast; 3.85 µM in the assay on LOX IMVI melanoma; more than 50 µM in the assay with MCF7 breast. The TGI is 2.46 µM in the assay with NCI-H23 lung, 9.87 µM in the assay with NCI-H522 lung, more than 50 µM in the assay with OVCAR-8 ovarian and more than 50 µM in the assay with UO-31 renal.
Turning to `O=C(O)C(Cl)(c1ccccc1)c1ccccc1`, the TGI with CAKI-1 renal, in the assay on COLO 205 colon, in the assay with EKVX NSCLC, in the assay with HS 578T breast, in the assay with LOX IMVI melanoma and in the assay on MCF7 breast was more than 100 µM in each case. Also, the TGI in the assay with NCI-H23 lung, in the assay on NCI-H522 lung, with OVCAR-8 ovarian and in the assay with UO-31 renal was more than 100 µM each time.
As to `CC[N+]1(C)CCC(O)(c2ccc(OC)cc2)C(C(=O)c2ccc(OC)cc2)C1` (stereo not given), the TGI with CAKI-1 renal came out at 11 µM; in the assay on COLO 205 colon, 10.6 µM; in the assay with EKVX NSCLC, 41.6 µM; in the assay with HS 578T breast it was 7.43 µM; in the assay with LOX IMVI melanoma, 34.3 µM; with MCF7 breast, 17.7 µM. Besides, the TGI in the assay on NCI-H23 lung came to 36.8 µM; with NCI-H522 lung it was 3.89 µM; in the assay with OVCAR-8 ovarian, 59.4 µM; with UO-31 renal it was 33.6 µM.
